This note sets out measurements from publication PMC10988555, “Exploiting Co(III)-Cyclopentadienyl Complexes To Develop Anticancer Agents” (Inorganic Chemistry, 2024).

Series [1] can be described thus: Octanol-water partition coefficient, shake-flask method. Particulars: room temperature. Format: physicochemical. Here is the method:
The lipophilicity of the CoCp complexes was estimated by the shake-flask method.[54] Before the assays, n-octanol was vigorously mixed with distilled water for 24 h at room temperature to promote solvent saturation of both phases. After separating the phases, the complexes were dissolved in the n-octanol phase to obtain solutions 1.0 × 10^–5 to 2.5 × 10^–4 M. Then, each solution was equilibrated with water for 4 h in a mechanical shaker, at a phase ratio of 2 mL n-octanol:2 mL water. Afterward, the aqueous and octanol layers were carefully separated by centrifugation (5000 rpm, 10 min), and the UV–vis absorption spectra of the complexes were recorded in the n-octanol phase. For each sample, the concentration was determined by using a calibration curve in n-octanol. All experiments were performed in triplicate for each complex, being the averages used for calculation purposes. Finally, the values of the partition coefficients were calculated by resorting to the following eq (eq 1): [drawing 1] 1 where logPoct/water represents the octanol–water partition coefficient, [complex]oct represents the concentration of the complex in the n-octanol phase, and [complex]water represents the concentration of the complex in the water phase.

The test system of series [2] is Caspase 8 in A2780 cell line. Briefly: Caspase 8 activity assay. Type of series: cell-based, human. Particulars: A2780, IC50, 48 h, normalized to DMSO. The protocol:
The A2780 cell line was seeded in 25 cm^2 T-flasks at a density of 2 × 10^6 cells/T-flasks. […] After that, cells were detached using cold PBS 1× and a cell scraper and centrifuged at 500 × g for 5 min. Then, we followed the instructions provided by the manufacturer of the Caspase-8 assay kit (Abcam). The data was obtained by measuring the absorbance of each sample at 400 nm and each value was normalized to the value of the DMSO sample.

The subject of a further series is DNA of A2780 cells. As to the kind of experiment: Single-cell gel electrophoresis (comet assay). Format: cell-based, human. To be noted: for fold increase in DNA in the tail compared to DMSO control: A2780, 10× IC50, 12 h; for % of DNA in the tail: A2780, complexes 10× IC50 for 12 h, H2O2 0.05% for 30 min at RT. The protocol: A2780 cells were seeded in 6-well plates with a density of 1 × 10^6 cells/well and incubated for 24 h in an incubator with a humidified atmosphere at 5% (v/v) CO2 and 37 °C. […] The complexes and DMSO were incubated at 37 °C for 12 h and H2O2 for 30 min at RT. Cells were harvested with a cell scraper and solutions with 1 × 10^5 cells/mL in PBS were prepared. It was withdrawn 10 μL from the solutions and added to 90 μL of 1.5% (w/v) low melting point agarose in 1× PBS and dropped on the slides prepared previously with a coating of 1.5% (w/v) agarose (normal melting point agarose) in 1× TAE buffer. After drying at 4 °C for 15 min, the slides were dipped into lysis solution (450 mM NaCl, 3.72% EDTA, 5 mM Tris; to which 10% (v/v) DMSO and 1% (v/v) Triton-X were added just before use) for 1 h at 4 °C, followed by their being dipped for 40 min into cold electrophoresis solution (1 mM EDTA, 300 mM NaOH, pH 13). Electrophoresis was performed at 4 °C for 30 min at 25 V using a Sub-Cell model 96 apparatus (Bio-Rad). Afterward, slides were placed in 0.1 M Tris–HCl buffer (pH 7.5) at 4 °C for 15 min for neutralization, followed by 15 min in methanol at 4 °C and drying at 37 °C. For visualization of comets, slides were hydrated with distilled water at 4 °C for 30 min, stained with 20 μL of GelRed working solution (3×), and covered with new coverslips. The slides were observed under a Ti–U Eclipse inverted microscope (Nikon Instruments, Japan) and analyzed by CometScore version 2.1 (TriTek). About 100 cells per sample were analyzed. The percentage of DNA in the tail was used as a measure of the total DNA strand breakage.

The next series deals with plasmidic DNA (pUC18). Briefly: Interaction with pDNA and cleavage mechanism (agarose gel electrophoresis). Particulars: 25 μM complex with NaN3, catalase or D2O, 24 h. Type of series: biochemical. Here is the method:
E. coli transformed with pUC18 was inoculated onto a plate of LB-agar medium (Luria–Bertani) (Applichem, Darmstadt, Germany) supplemented with ampicillin (100 μg/mL) (Bioline, London, UK) and incubated for 24 h at 37 °C. Then, the E. coli cells were inoculated in liquid LB medium, supplemented with ampicillin (100 μg/mL) for 24 h at 37 °C. After incubation, the plasmid DNA (pDNA) was extracted by using the Kit NZYSpeedy Miniprep, following the instructions provided by the manufacturer.
The extracted pDNA (100 ng) was incubated with 5, 25, 50, and 100 μM concentrations of complexes 2–4, with DMSO 0.1% or only pUC18. The solutions were prepared in 5 mM Tris–HCl, 50 mM NaCl, pH 7.02, buffer, and incubated for 24 h at 37 °C. A control of pDNA cleaved with Hind III endonuclease was also used. Electrophoresis was performed in 0.8% (w/v) agarose gel (NZYtech) in TAE buffer at 70 V constant voltage for 1 h. Electrophoresis gel image was acquired in the Gel Doc EZ Imager (Bio-Rad).
The pDNA (100 ng) was incubated with 25 μM of complexes 2–4, in the absence or presence of 50 μM of NaN3, 4 units of catalase from the bovine liver (2000–5000 U/mg, Sigma-Aldrich, Spain), and 25 mM of D2O. The solutions were prepared in 5 mM Tris–HCl, 50 mM NaCl, pH 7.02, buffer, and incubated for 24 h at 37 °C. A control of pDNA cleaved with Hind III endonuclease was also used. […]

Take `Nc1cc2cccnc2c2ncccc12.O=S(=O)([O-])C(F)(F)F.O=S(=O)([O-])C(F)(F)F.[Co+3].c1cc[cH-]c1.c1ccc(P(c2ccccc2)c2ccccc2)cc1` [Complex 4, [CoCp(PPh3)(NH2phen)][(CF3SO3)2]]: the “logP (n-octanol/water partition coefficient)” value in series [1] is −0.22 ± 0.03. Also, the “caspase 8 activity relative to control” value in series [2] was 1.6 ×. In the series with DNA of A2780 cells, the “fold increase in DNA in the tail compared to DMSO control” value (shortened to “fold increase in DNA in the tail”) was 4.4 fold and the “% of DNA in the tail” value turned out to be 56.4%.
For `Cc1ccnc(-c2cc(C)ccn2)c1.O=S(=O)([O-])C(F)(F)F.O=S(=O)([O-])C(F)(F)F.[Co+3].c1cc[cH-]c1.c1ccc(P(c2ccccc2)c2ccccc2)cc1` [Complex 2, [Co(η^5-C5H5)(PPh3)(Me2bipy)][(CF3SO3)2]], the “logP (n-octanol/water partition coefficient)” value in series [1] is recorded as −0.56 ± 0.02. In addition, in series [2], the “caspase 8 activity relative to control” value was determined as 2 ×. Moreover, the pDNA cleavage mechanism entry in the series on plasmidic DNA (pUC18) was “cleave pDNA through singlet oxygen”. Besides, in the series on DNA of A2780 cells, the “fold increase in DNA in the tail” value worked out at 3.1 fold and the “% of DNA in the tail” value is 39.7%.
`O=S(=O)([O-])C(F)(F)F.O=S(=O)([O-])C(F)(F)F.[Co+3].c1cc[cH-]c1.c1ccc(P(c2ccccc2)c2ccccc2)cc1.c1cnc2c(c1)ccc1cccnc12` [Complex 3, [Co(η^5-C5H5)(PPh3)(phen)][(CF3SO3)2]]: in series [1], the “logP (n-octanol/water partition coefficient)” value is recorded as −0.28 ± 0.05. Moreover, the pDNA cleavage mechanism entry in the series with plasmidic DNA (pUC18) was “cleave pDNA through singlet oxygen”. For the same compound, in the series on DNA of A2780 cells, the “fold increase in DNA in the tail” value amounted to 3.2 fold and the “% of DNA in the tail” value was found to be 42.4%.
